The nature of data set [1]: Determination of drug solubility. The format is physicochemical. As to conditions: for solubility: thermodynamic from solid. The procedure:
For each test, approximately 5-10 mg was transferred to a 10 mL glass vial. Aqueous or organic solvent was added to each vial to achieve an overall concentration of 50 mg/mL. After vortexing aggressively for 2-3 minutes and sonicating in a bath sonicator for 5 minutes, undissolved drug was spun down at 1200 rpm for 5 minutes to generate a pellet. The supernatant was collected and filtered through a 0.2 μm nylon syringe filter into HPLC vials for drug content analysis. Drug concentration was determined by comparing against a standard calibration curve.

Data set [2] addresses T1, bovine erythrocyte carbonic anhydrase II (Bos taurus, UniProt P00921).
T1 construct: purified bovine erythrocyte carbonic anhydrase II; from tissue; host or cells: bovine erythrocytes
The data set is described as follows: Carbonic anhydrase II inhibition, colorimetric 4-nitrophenyl acetate hydrolysis. To be noted: n = 2. Type of data set: biochemical. The procedure: The catalytic activity of carbonic anhydrase II was assessed by a colorimetric method, in which 4-nitrophenyl acetate is hydrolyzed to acetate and nitrophenolate. The nitrophenolate ionizes to generate a bright yellow anion that is readily detected by measuring its absorbance at 350-400 nm. […] Acetazolamide was added as a positive control and 100% DMSO was added as a negative control. The reaction was initiated with the addition of 20 μL of 4-nitrophenyl acetate (0.7 mM in ethanol).

Where [3] appears, read: DCM, organic solvent or mixture, read-out: Solubility DCM.
The mark [4] stands for this setting: DMSO, organic solvent or mixture, read-out: Solubility DMSO.
[5] abbreviates: water / aqueous solvent, read-out: Solubility Water.

The results in this text go back to patent publication US10117950B2, “Compounds and compositions for the treatment of ocular disorders” (Graybug Vision, Inc., priority 2015, dated 2018).

Where two headings read alike, the source gives them in different places. Bounds are passed on as bounds.

T1 sequence (P00921 whole entry): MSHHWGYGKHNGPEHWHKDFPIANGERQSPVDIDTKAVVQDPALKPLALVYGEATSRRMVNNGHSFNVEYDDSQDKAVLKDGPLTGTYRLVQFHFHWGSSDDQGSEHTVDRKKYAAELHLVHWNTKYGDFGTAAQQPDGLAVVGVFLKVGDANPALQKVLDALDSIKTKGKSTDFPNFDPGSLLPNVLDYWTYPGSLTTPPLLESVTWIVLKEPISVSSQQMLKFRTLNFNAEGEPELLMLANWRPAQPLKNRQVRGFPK

`CCN[C@H]1C[C@H](C)S(=O)(=O)c2sc(S(=O)(=O)NC(=O)[C@H](C)OC(=O)[C@H](C)OC(=O)[C@H](C)OC(C)=O)cc21` [26-1]: the solubility in data set [1] (setting [3]), in data set [1] (setting [4]) and in data set [1] (setting [5]) was > 50 mg/mL in each case. Also, the IC50 in data set [2] is 16.4 ± 7.25 nM.

Take `CCN[C@H]1C[C@H](C)S(=O)(=O)c2sc(S(=O)(=O)NC(=O)[C@H](C)OC(=O)[C@H](C)OC(=O)[C@H](C)OC(=O)[C@H](C)OC(C)=O)cc21` [27-1]: the solubility was > 50 mg/mL in data set [1] (setting [3]), > 50 mg/mL in data set [1] (setting [4]) and < 1 mg/mL in data set [1] (setting [5]). For the same molecule, half-maximal inhibition in data set [2] (IC50) required 44.1 ± 14.8 nM.

As for `CCN[C@H]1C[C@H](C)S(=O)(=O)c2sc(S(=O)(=O)NC(=O)[C@H](C)OC(=O)[C@H](C)OC(=O)[C@H](C)OC(=O)[C@H](C)OC(=O)[C@H](C)OC(=O)[C@H](C)OC(C)=O)cc21` [29-1, dorzolamide-acetyl PLA (n=6)], the figures for the solubility in data set [1] (setting [3]), in data set [1] (setting [4]) and in data set [1] (setting [5]) were > 50 mg/mL, > 50 mg/mL and < 1 mg/mL, respectively.

As for `CCN(CC)CCNC(=O)c1c(C)[nH]c(/C=C2\C(=O)Nc3ccc(N)cc32)c1C` [47-1, 5-[5-amino-2-oxo-1,2-dihydro-indol-(3Z)-ylidenemethyl]-2,4-dimethyl-1H-pyrrole-3-carboxylic acid (2-diethylamino-ethyl)-amide], the solubility is > 50 mg/mL in data set [1] (setting [4]) and < 1 mg/mL in data set [1] (setting [5]).

For the molecule `C=C(CC)C(=O)c1ccc(OCC(=O)O)c(Cl)c1Cl` [54-1, ethacrynic acid], the “Solubility DMSO” value in data set [1] (DMSO) is listed as >50 mg/mL. Also, the “Solubility Water” value in data set [1] (water / aqueous solvent) is <1.0 mg/mL.

Turning to `CCN(CC)CCNC(=O)c1c(C)[nH]c(/C=C2\C(=O)Nc3ccc(OC(=O)CCCCC(=O)N(CC)[C@H]4CN(CCCOC)S(=O)(=O)c5sc(S(=O)(=O)NC(=O)[C@H](C)OC(=O)[C@H](C)OC(=O)[C@H](C)O)cc54)cc32)c1C` [61-2, (3Z)-3-[(4-{[2-(diethylamino)ethyl]carbamoyl}-3,5-dimethyl-1H-pyrrol-2-yl)methylidene]-2-oxo-2,3-dihydro-1H-indol-5-yl 5-{ethyl[(4R)-6-{[(2S)-2-{[(2S)-2-{[(2S)-2-hydroxypropanoyl]oxy}propanoyl]oxy}propanamido]sulfonyl}-2-(3-methoxypropyl)-1,1-dioxo-2H,3H,4H-1λ^6-thieno[3,2-e][1,2]thiazin-4-yl]carbamoyl}pentanoate], the figures for the solubility in data set [1] (setting [4]) and in data set [1] (setting [5]) were > 50 mg/mL and < 1 mg/mL, respectively.

With `CCN[C@H]1CN(CCCOC)S(=O)(=O)c2sc(S(=O)(=O)NC(=O)[C@H](C)OC(=O)[C@H](C)OC(=O)[C@H](C)OC(=O)CCCCC(=O)Oc3ccc4c(c3)/C(=C/c3[nH]c(C)c(C(=O)NCCN(CC)CC)c3C)C(=O)N4)cc21` [61-3, (3Z)-3-[(4-{[2-(diethylamino)ethyl]carbamoyl}-3,5-dimethyl-1H-pyrrol-2-yl)methylidene]-2-oxo-2,3-dihydro-1H-indol-5-yl 1-(2S)-1-[(2S)-1-[(1S)-1-({[(4R)-4-(ethylamino)-2-(3-methoxypropyl)-1,1-dioxo-2H,3H,4H-1λ^6-thieno[3,2-e][1,2]thiazin-6-yl]sulfonyl}carbamoyl)ethoxy]-1-oxopropan-2-yl]oxy}-1-oxopropan-2-yl hexanedioate], the “Solubility DMSO” value in data set [1] (DMSO) is >50 mg/mL. Also, the “Solubility Water” value in data set [1] (water / aqueous solvent) is given as <1.0 mg/mL.

For `CCN[C@H]1CN(CCCOC)S(=O)(=O)c2sc(S(N)(=O)=O)cc21` [Brinzolamide, reference compound], the solubility was < 7.5 mg/mL in data set [1] (setting [3]), > 50 mg/mL in data set [1] (setting [4]) and < 1 mg/mL in data set [1] (setting [5]). Besides, the “Solubility DMSO” value in data set [1] (DMSO) is on record as >50 mg/mL. Also, the “Solubility Water” value in data set [1] (water / aqueous solvent) is reported as <1.0 mg/mL.

In the case of `CCN[C@H]1C[C@H](C)S(=O)(=O)c2sc(S(N)(=O)=O)cc21` [Dorzolamide, reference compound], the figures for the solubility in data set [1] (setting [3]), in data set [1] (setting [4]) and in data set [1] (setting [5]) were < 1 mg/mL, < 1 mg/mL and > 50 mg/mL, respectively. The organic solubility result in data set [1] (organic solvent) is given as “low organic solubility”. Moreover, in data set [1] (water / aqueous solvent), the “Solubility Water” value is given as >50 mg/mL.

As usually defined, the solubility is how much of the substance goes into solution per volume. As usually defined, the IC50 is the concentration that gives 50% inhibition.
